The values that follow come from patent US8703805B2 (Exelixis Patent Company LLC, priority 2005, dated 2014).

For orientation: EC50 means the concentration needed to bring the measured effect to its halfway point.

The subject of the experiment is LXRα and/or LXRβ. Description: LXR/LXRE co-transfection assay (luciferase reporter, CV-1 cells). Format: cell-based, human. The note with it: IC50 or EC50 for LXR (LXRα and/or LXRβ, not distinguished), tested as described in Example 109, CV-1 cells. The procedure, abridged: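 Transient co-transfection of CV-1 cells with full-length human LXRα or LXRβ plus RXRα expression plasmids and an LXREx1-Tk-luciferase reporter; compounds (10 μM screen, ≤1% DMSO) incubated 20 h at 37 °C. Luminescence read after lysis; EC50/IC50 from 8-point half-log curves, efficacy relative to a high control or DMSO.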
For the molecule `Cc1cc(CC(=O)O)ccc1-c1ccc(-c2cc(C(F)(F)F)nn2-c2ncccc2C(F)(F)F)s1` [Example 1155, [3-methyl-4-(5-{3-(trifluoromethyl)-1-[3-(trifluoromethyl)pyridin-2-yl]-1H-pyrazol-5-yl}-2-thienyl)phenyl]acetic acid], the EC50 lay within 1000 to 10000 nM.

On to `CS(=O)(=O)c1cccc(-c2ccc(-c3cc(C(F)(F)F)nn3-c3ccccc3Oc3ccccc3)s2)c1` [Example 1215, 5-{5-[3-(methylsulfonyl)phenyl]-2-thienyl}-1-[2-(phenyloxy)phenyl]-3-(trifluoromethyl)-1H-pyrazole], for which the EC50 is below 1000 nM.

`COC(=O)c1cccc(-c2ccc(-c3cc(C(F)(F)F)nn3-c3ccccc3Cl)cc2)c1` [Example 1208, methyl 4′-[1-(2-chlorophenyl)-3-(trifluoromethyl)-1H-pyrazol-5-yl]biphenyl-3-carboxylate] registered an EC50 of 1000 to 10000 nM.

In turn, `CC(C)(O)c1cc(-c2sc(-c3cccc(S(C)(=O)=O)c3)cc2Br)n(-c2cccc(F)c2C(F)(F)F)n1` [Example 49, 2-(5-(3-bromo-5-(3-(methylsulfonyl)phenyl)thiophen-2-yl)-1-(3-fluoro-2-(trifluoromethyl)phenyl)-1H-pyrazol-3-yl)propan-2-ol] showed an EC50 below 1000 nM.

In turn, `CCCc1ccccc1-n1nc(C(C)(C)O)cc1-c1ccc(-c2cccc(S(C)(=O)=O)c2)s1` [Example 1330, 2-[5-{5-[3-(methylsulfonyl)phenyl]-2-thienyl}-1-(2-propylphenyl)-1H-pyrazol-3-yl]propan-2-ol] returned an EC50 below 1000 nM.

In turn, `O=C(O)CCNC(=O)c1ccc(-c2cc(C(F)(F)F)nn2-c2ccccc2Cl)cc1` [Example 1363, N-({4-[1-(2-chlorophenyl)-3-(trifluoromethyl)-1H-pyrazol-5-yl]phenyl}carbonyl)-beta-alanine] returned an EC50 of 1000 to 10000 nM.

The molecule `Cc1cc(-n2nc(C(C)(C)O)c(Cl)c2-c2c(Cl)cccc2Cl)ccc1-c1cccc(S(C)(=O)=O)c1` [Example 1419, 2-(4-chloro-5-(2,6-dichlorophenyl)-1-(2-methyl-3′-(methylsulfonyl)biphenyl-4-yl)-1H-pyrazol-3-yl)propan-2-ol] registered a concentration giving a half-maximal response (EC50) of 1000 to 10000 nM.

The molecule `CC(C)(O)c1cccc(-n2nc(C(F)(F)F)cc2-c2ccc(-c3cccc(S(C)(=O)=O)c3)s2)c1` [Example 1187, 2-{3-[5-{5-[3-(methylsulfonyl)phenyl]-2-thienyl}-3-(trifluoromethyl)-1H-pyrazol-1-yl]phenyl}propan-2-ol] had an EC50 below 1000 nM.

Molecule `CCNC(=S)c1cc(-c2ccc(-c3cccc(S(C)(=O)=O)c3)s2)n(-c2ccccc2Cl)n1` [Example 1194, 1-(2-chlorophenyl)-N-ethyl-5-{5-[3-(methylsulfonyl)phenyl]-2-thienyl}-1H-pyrazole-3-carbothioamide] came in with an EC50 below 1000 nM.

`CS(=O)(=O)c1cccc(-c2ccc(-c3cc(C(=O)N4CCCC4)nn3-c3ccccc3Cl)s2)c1` [Example 1129, 1-(2-chlorophenyl)-5-{5-[3-(methylsulfonyl)phenyl]-2-thienyl}-3-(pyrrolidin-1-ylcarbonyl)-1H-pyrazole]: the EC50 is below 1000 nM.

The molecule `CS(=O)(=O)c1cc(-c2ccc(-c3cc(C(F)(F)F)nn3-c3cc(Cl)ccc3Cl)s2)ccc1OCCO` [Example 1255, 2-{[4-{5-[1-(2,5-dichlorophenyl)-3-(trifluoromethyl)-1H-pyrazol-5-yl]-2-thienyl}-2-(methylsulfonyl)phenyl]oxy}ethanol] came in with a concentration giving a half-maximal response (EC50) of 1000 to 10000 nM.

Molecule `CC(C)(O)c1nn(-c2ccccc2Cl)c(-c2ccc(-c3cccc(S(C)(=O)=O)c3)s2)c1Cl` [Example 1294, 2-[4-chloro-1-(2-chlorophenyl)-5-{5-[3-(methylsulfonyl)phenyl]-2-thienyl}-1H-pyrazol-3-yl]propan-2-ol] gave an EC50 below 1000 nM.

`COC(=O)c1cc(-c2cc(C(F)(F)F)nn2-c2ccccc2Cl)ccc1-c1cccc(S(C)(=O)=O)c1` [Example 1138, methyl 4-[1-(2-chlorophenyl)-3-(trifluoromethyl)-1H-pyrazol-5-yl]-3′-(methylsulfonyl)biphenyl-2-carboxylate]: the EC50 lay within 1000 to 10000 nM.

The molecule `COC(=O)CN(C)C(=O)c1cc(-c2ccc(-c3cccc(S(C)(=O)=O)c3)s2)n(-c2ccccc2Cl)n1` [Example 589, methyl N-{[1-(2-chlorophenyl)-5-{5-[3-(methylsulfonyl)phenyl]-2-thienyl}-1H-pyrazol-3-yl]carbonyl}-N-methylglycinate] showed an EC50 below 1000 nM.

As for `COC(=S)c1cc(-c2ccc(-c3cccc(S(C)(=O)=O)c3)s2)n(-c2ccccc2C(F)(F)F)n1` [Example 1179, O-methyl 5-{5-[3-(methylsulfonyl)phenyl]-2-thienyl}-1-[2-(trifluoromethyl)phenyl]-1H-pyrazol-3-carbothioate], the concentration giving a half-maximal response (EC50) lay in the range of 1000 to 10000 nM.

With `CC(C)(O)c1nn(-c2c(Cl)cncc2Cl)c(-c2ccc(-c3cccc(S(C)(=O)=O)c3)s2)c1Cl` [Example 127, 2-(4-chloro-1-(3,5-dichloropyridin-4-yl)-5-(5-(3-(methylsulfonyl)phenyl)thiophen-2-yl)-1H-pyrazol-3-yl)propan-2-ol], the half-maximal effective concentration (EC50) was below 1000 nM.

Molecule `CCOC(=O)COc1cccc(-c2ccc(-c3cc(C(C)(C)O)nn3-c3ccccc3Cl)cc2)c1` [Example 1297, ethyl ({4′-[1-(2-chlorophenyl)-3-(1-hydroxy-1-methylethyl)-1H-pyrazol-5-yl]biphenyl-3-yl}oxy)acetate] came in with an EC50 of 1000 to 10000 nM.
